Measurements reported in patent US4985406A (Institut National de la Sante et de La Recherche Medicale …, priority 1987, dated 1991).
Starred links: 1 amine or outer side, 2 acyl side, 3 side chain; linkers in the order of their positions; H or OH if unused. Positions of bridges follow the written chain, without caps; N, C: chain ends. Non-standard residues stand in square brackets, D forms with d. Residues, ends and D or L forms follow the SMILES beside them. *: point of attachment. X1 = CC(C)(C)OC(=O)N[C@H](CCC(=O)[*:1])C(=O)[*:2]; sY = N[C@@H](Cc1ccc(OS(=O)(=O)O)cc1)C(=O)O; Nle = CCCC[C@H](N)C(=O)O; Boc = CC(C)(C)OC(=O)*

Key:
guinea-pig ileum = assay: Test of contraction-inducing activity on guinea-pig ileum; conditions: mean (±S.E.M.) of 3 independent experiments; read-out: Contraction-inducing activity on guinea-pig ileum, agonist activity EC50
Description: This test is carried out according to the method described by HUTCHINSON et al., Eur. J. Pharmacol., 69, 87 (1981). Strips of guinea-pig ileum of the terminal portion are rapidly removed and attached in the cell of an isometric gauge containing 25 cm^3 of Tyrode's solution. The solution is maintained at 37° C. while a stream of a gas composed of 95% oxygen and 5% CO2 is passed through bubble by bubble. The test compounds are tested under the conditions described by RUIZ-GAYO et al., Peptides, 6, 415 (1985).
The values shown in this table for the agonist activity represent the mean (±S.E.M.) of 3 independent experiments.

[1] = biological target: cholecystokininergic receptors of the central nervous system (guinea-pig brain cortex); assay: Binding test, competition with [3H]BOC-[NLe28,31]CCK27-33 on guinea-pig brain cortex; conditions: for Ki: [3H]BOC-[NLe28,31]CCK27-33 at 0.2 nM, guinea-pig brain cortex; for Selectivity factor: ratio given as drawing 11, matches KI pancreatic acini / KI cortex
Description: (§1) The products of the invention are tested in competitive experiments with respect to the ligand [^3 H]BOC-[NLe^28,31 ]CCK27-33 on guinea-pig brain cortex and guinea-pig pancreatic acini. […] The [^3 H]BOC-[NLe^28,31 ]CCK27-33 was used at a concentration of 0.2 nM for the brain and 0.5 nM for the pancreas.

[2] = biological target: T1, peripheral cholecystokininergic receptors (guinea-pig pancreatic acini) (Cavia porcellus, UniProt Q63931); assay: Binding test, competition with [3H]BOC-[NLe28,31]CCK27-33 on guinea-pig pancreatic acini; conditions: [3H]BOC-[NLe28,31]CCK27-33 at 0.5 nM
T1 construct: on guinea-pig brain cortex and guinea-pig pancreatic acini; from tissue; host or cells: guinea-pig pancreatic acini
T1 sequence (Q63931 1-430): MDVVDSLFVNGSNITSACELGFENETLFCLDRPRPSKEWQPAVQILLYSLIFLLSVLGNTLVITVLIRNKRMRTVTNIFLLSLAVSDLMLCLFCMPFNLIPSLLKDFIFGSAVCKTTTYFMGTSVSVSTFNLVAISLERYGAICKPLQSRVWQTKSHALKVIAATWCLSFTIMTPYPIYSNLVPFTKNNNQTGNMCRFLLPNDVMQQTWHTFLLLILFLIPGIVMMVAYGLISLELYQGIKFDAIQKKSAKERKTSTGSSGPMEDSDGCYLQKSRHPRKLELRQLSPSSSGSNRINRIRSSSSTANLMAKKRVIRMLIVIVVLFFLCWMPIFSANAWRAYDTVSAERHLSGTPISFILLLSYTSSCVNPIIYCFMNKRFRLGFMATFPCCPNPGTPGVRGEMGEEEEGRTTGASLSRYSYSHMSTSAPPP
Description: as §1

[3] = biological target: guinea-pig pancreatic acini; assay: Test of release of pancreatic amylase; format: cell-based; conditions: acini incubated 30 minutes at 37° C.; mean of 3 independent experiments in triplicate; read-out: Secretion of pancreatic amylase by guinea-pig acini, agonist activity EC50
Description: J. Physiol., 235, E 743 (1978). The acini are incubated for 30 minutes at 37° C. in the presence of the test product at different doses, according to the method described by GARDNER and JACKSON, J. Physiol., 270, 439 (1977). The amylase activity is determined using the PHADEBAS reagent (Pharmacia) according to the method described by CESKA et al., Experientia, 25, 555 (1969).
The values shown in this table represent the mean of 3 independent experiments, each performed in triplicate.

Ki [2] [nM]	SMILES	EC50 (guinea-pig ileum) [nM]	Ki [1] [nM]	Selectivity factor [1]	EC50 [3] [nM]
	CCCC[C@H](NC(=O)[C@H](Cc1c[nH]c2ccccc12)NC(=O)[C@H]1CCCCNC(=O)[C@H](NC(=O)OC(C)(C)C)CCC(=O)N[C@@H](Cc2ccc(OS(=O)(=O)O)cc2)C(=O)N[C@@H](CCCC)C(=O)N1)C(=O)N[C@@H](CC(=O)O)C(=O)N[C@@H](Cc1ccccc1)C(N)=O [Example 16] ([sY][Nle][dK]W[Nle]DF-NH2; linker N-3 via X1; C-terminus assumed)	> 10000	0.49	1970	
860	CCCC[C@H](NC(=O)[C@H](Cc1c[nH]c2ccccc12)NC(=O)[C@H]1CCCCNC(=O)[C@H](NC(=O)OC(C)(C)C)CCC(=O)N[C@@H](Cc2ccc(O)cc2)C(=O)N[C@@H](CCCC)C(=O)N1)C(=O)N[C@@H](CC(=O)O)C(=O)N[C@@H](Cc1ccccc1)C(N)=O [Example 15] (Y[Nle][dK]W[Nle]DF-NH2; linker N-3 via X1)				
	CCCC[C@H](NC(=O)[C@H](Cc1c[nH]c2ccccc12)NC(=O)[C@H]1CCCCNC(=O)CC[C@@H](NC(=O)OC(C)(C)C)C(=O)N[C@@H](Cc2ccc(OS(=O)(=O)O)cc2)C(=O)N[C@@H](CCCC)C(=O)N1)C(=O)N[C@@H](CC(=O)O)C(=O)N[C@@H](Cc1ccccc1)C(N)=O [Example 7] (Boc-[dE][sY][Nle][dK]W[Nle]DF-NH2; lactam 1-4; N-terminus assumed)	> 10000	6.3	160	
	CCCC[C@H](NC(=O)[C@H](Cc1c[nH]c2ccccc12)NC(=O)[C@H]1CCCCNC(=O)C[C@@H](NC(=O)OC(C)(C)C)C(=O)N[C@@H](Cc2ccc(OS(=O)(=O)O)cc2)C(=O)N[C@@H](CCCC)C(=O)N1)C(=O)N[C@@H](CC(=O)O)C(=O)N[C@@H](Cc1ccccc1)C(N)=O [Example 5] (Boc-[dD][sY][Nle][dK]W[Nle]DF-NH2; lactam 1-4; N-terminus assumed)	> 10000	5.1	179	< 10000
